Measurements as given in US20220395496A1 (Hoffmann-La Roche Inc., priority 2019, published 2022).

Molecular target: T1, human TLR9 (Homo sapiens, UniProt Q9NR96)
T1 sequence (Q9NR96 26-1032): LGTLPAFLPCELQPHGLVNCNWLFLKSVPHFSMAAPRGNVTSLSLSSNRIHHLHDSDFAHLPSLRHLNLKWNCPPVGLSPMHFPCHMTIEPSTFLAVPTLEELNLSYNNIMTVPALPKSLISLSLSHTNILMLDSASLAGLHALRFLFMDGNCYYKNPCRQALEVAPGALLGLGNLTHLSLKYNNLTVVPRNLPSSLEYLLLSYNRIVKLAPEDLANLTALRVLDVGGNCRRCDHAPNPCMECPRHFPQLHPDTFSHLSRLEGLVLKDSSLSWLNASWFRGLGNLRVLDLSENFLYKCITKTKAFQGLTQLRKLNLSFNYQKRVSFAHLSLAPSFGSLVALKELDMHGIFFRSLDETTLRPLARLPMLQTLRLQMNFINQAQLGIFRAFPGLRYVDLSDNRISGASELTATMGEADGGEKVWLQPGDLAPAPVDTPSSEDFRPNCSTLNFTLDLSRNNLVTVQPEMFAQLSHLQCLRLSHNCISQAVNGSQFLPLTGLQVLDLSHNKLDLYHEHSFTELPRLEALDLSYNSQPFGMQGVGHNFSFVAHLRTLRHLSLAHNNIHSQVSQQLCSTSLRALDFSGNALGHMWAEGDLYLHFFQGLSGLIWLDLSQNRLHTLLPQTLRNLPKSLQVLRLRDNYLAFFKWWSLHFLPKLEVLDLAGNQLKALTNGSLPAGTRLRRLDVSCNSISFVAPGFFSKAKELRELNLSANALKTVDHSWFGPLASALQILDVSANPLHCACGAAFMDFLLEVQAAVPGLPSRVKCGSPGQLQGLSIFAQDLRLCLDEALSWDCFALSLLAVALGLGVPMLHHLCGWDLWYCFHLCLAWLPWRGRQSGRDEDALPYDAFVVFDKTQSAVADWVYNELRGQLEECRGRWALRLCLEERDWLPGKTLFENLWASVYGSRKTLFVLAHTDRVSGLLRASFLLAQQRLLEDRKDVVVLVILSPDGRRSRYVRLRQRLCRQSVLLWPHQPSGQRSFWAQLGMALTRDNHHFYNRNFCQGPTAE
Assay: HEK293-Blue-hTLR-9 cells assay (SEAP reporter, ODN2006 stimulation)
Type: cell-based
Conditions: HEK293-Blue-hTLR9 cells, ODN2006, 20 hrs
Method: The following tests were carried out in order to determine the activity of the compounds of this invention in HEK293-Blue-hTLR-7/8/9 cells assay.
HEK293-Blue-hTLR-9 Cells Assay:
A stable HEK293-Blue-hTLR-9 cell line was purchased from InvivoGen (Cat. #: hkb-htlr9, San Diego, Calif., USA). These cells were originally designed for studying the stimulation of human TLR9 by monitoring the activation of NF-κB. A SEAP (secreted embryonic alkaline phosphatase) reporter gene was placed under the control of the IFN-β minimal promoter fused to five NF-κB and AP-1-binding sites. The SEAP was induced by activating NF-κB and AP-1 via stimulating HEK-Blue hTLR9 cells with TLR9 ligands. Therefore the reporter expression was declined by TLR9 antagonist under the stimulation of a ligand, such as ODN2006 (Cat. #: tlr1-2006-1, Invivogen, San Diego, Calif., USA), for incubation of 20 hrs. The cell culture supernatant SEAP reporter activity was determined using QUANTI-Blue™ kit (Cat. #: rep-qb1, Invivogen, San Diego, Calif., USA) at a wavelength of 640 nm, a detection medium that turns purple or blue in the presence of alkaline phosphatase.
HEK293-Blue-hTLR9 cells were incubated at a density of 250,000˜450,000 cells/mL in a volume of 170 μL in a 96-well plate in Dulbecco's Modified Eagle's medium (DMEM) containing 4.5 g/L glucose, 50 U/mL penicillin, […], 2 mM L-glutamine, 10% (v/v) heat-inactivated fetal bovine serum with addition of 20 μL test compound in a serial dilution in the presence of final DMSO at 1% and 10 μL of 20 uM ODN2006 in above DMEM, perform incubation under 37° C. in a CO2 incubator for 20 hrs. Then 20 μL of the supernatant from each well was incubated with 180 μL Quanti-blue substrate solution at 37° C. for 2 hrs and the absorbance was read at 620˜655 nm using a spectrophotometer. The signalling pathway that TLR9 activation leads to downstream NF-κB activation has been widely accepted, and therefore similar reporter assay was modified for evaluating TLR9 antagonist.

Point of comparison: `Cc1cc(-c2ccc(CN[C@@H]3C[C@H](C)CN(c4ccc(C#N)c5ncccc45)C3)cc2)cc(C)n1` [Example 15, 5-[(3R,5S)-3-[[4-(2,6-dimethyl-4-pyridyl)phenyl]methylamino]-5-methyl-1-piperidyl]quinoline-8-carbonitrile], IC50 126 nM. Against it:
- C[C@H]1C[C@@H](N2CCc3cc(N4CCNCC4)ccc3C2)CN(c2ccc(C#N)c3ncccc23)C1 (relative stereo) [Example 24, 5-[cis-3-methyl-5-(6-piperazin-1-yl-3,4-dihydro-1H-isoquinolin-2-yl)-1-piperidyl]quinoline-8-carbonitrile] — 1.8-fold lower, 70 nM
- C[C@H]1C[C@@H](NCc2ccc(N3CCNCC3)cc2)CN(c2ccc(C#N)c3ncccc23)C1 [Example 1, 5-[(3S,5R)-3-methyl-5-[(4-piperazin-1-ylphenyl)methylamino]1-piperidyl]quinoline-8-carbonitrile] — 2.3-fold lower, 55 nM
- C[C@H]1C[C@@H](NCc2ccc(C3CCNCC3)cc2)CN(c2ccc(C#N)c3ncccc23)C1 [Example 2, 5-[(3S,5R)-3-methyl-5-[[4-(4-piperidyl)phenyl]methylamino]-1-piperidyl]quinoline-8-carbonitrile] — 1.7-fold lower, 75 nM
- C[C@H]1C[C@@H](NCc2ccc(N3CCNCC3)cc2)CN(c2ccc(C#N)c3nccnc23)C1 [Example 3, 8-[(3S,5R)-3-methyl-5-[(4-piperazin-1-ylphenyl)methylamino]-1-piperidyl]quinoxaline-5-carbonitrile] — 1.6-fold lower, 77 nM
- C[C@H]1C[C@@H](NCc2ccc(N3CCNCC3)cc2F)CN(c2ccc(C#N)c3ncccc23)C1 [Example 4, 5-[(3R,58)-3-[(2-fluoro-4-piperazin-1-yl-phenyl)methylamino]-5-methyl-1-piperidyl]quinoline-8-carbonitrile] — within 1.5-fold, 94 nM
- C[C@H]1C[C@@H](NCc2ccc(N3CCNCC3)cn2)CN(c2ccc(C#N)c3ncccc23)C1 [Example 5, 5-[(3S,5R)-3-methyl-5-[(5-piperazin-1-yl-2-pyridyl)methylamino]-1-piperidyl]quinoline-8-carbonitrile] — 1.9-fold lower, 68 nM
- C[C@H]1C[C@@H](NCc2cccc(N3CCN(C)CC3)c2)CN(c2ccc(C#N)c3ncccc23)C1 [Example 6, 5-[(3S,5R)-3-methyl-5-[[3-(4-methylpiperazin-1-yl)phenyl]methylamino]-1-piperidyl]quinoline-8-carbonitrile] — 1.8-fold lower, 70 nM
- C[C@H]1C[C@@H](NCc2ccc(N3CCN(C)CC3)cc2)CN(c2ccc(C#N)c3ncccc23)C1 [Example 7, 5-[(3S,5R)-3-methyl-5-[[4-(4-methylpiperazin-1-yl)phenyl]methylamino]-1-piperidyl]quinoline-8-carbonitrile] — 1.8-fold lower, 69 nM
- C[C@H]1C[C@@H](NCc2cccc(N3CCNCC3)c2)CN(c2ccc(C#N)c3ncccc23)C1 [Example 8, 5-[(3S,5R)-3-methyl-5-[(3-piperazin-1-ylphenyl)methylamino]-1-piperidyl]quinoline-8-carbonitrile] — within 1.5-fold, 88 nM
- C[C@H]1C[C@@H](N(C)Cc2ccc(N3CCNCC3)cc2)CN(c2ccc(C#N)c3ncccc23)C1 [Example 9, 5-[(3S,5R)-3-methyl-5-[methyl-[(4-piperazin-1-ylphenyl)methyl]amino]-1-piperidyl]quinoline-8-carbonitrile] — within 1.5-fold, 95 nM
- C[C@H]1C[C@@H](NCc2ccc(N3CCNCC3)nc2)CN(c2ccc(C#N)c3ncccc23)C1 [Example 10] — 1.9-fold lower, 68 nM
- C[C@H]1C[C@@H](NCc2ccc3c(c2)CCNC3)CN(c2ccc(C#N)c3ncccc23)C1 [Example 11, 5-[(3S,5R)-3-methyl-5-(1,2,3,4-tetrahydroisoquinolin-6-ylmethylamino)-1-piperidyl]quinoline-8-carbonitrile] — 1.5-fold lower, 82 nM
- C[C@H]1C[C@@H](N2Cc3ccc(N4CCNCC4)cc3C2)CN(c2ccc(C#N)c3ncccc23)C1 [Example 12, 5-[(3S,5R)-3-methyl-5-(5-piperazin-1-ylisoindolin-2-yl)-1-piperidyl]quinoline-8-carbonitrile] — 1.7-fold lower, 73 nM
- C[C@H]1C[C@@H](NCc2ccc(N3CCC(N)C3)cc2)CN(c2ccc(C#N)c3ncccc23)C1 (stereo partly drawn) [Example 13, 5-[(3R,5S)-3-[[4-(3-aminopyrrolidin-1-yl)phenyl]methylamino]-5-methyl-1-piperidyl]quinoline-8-carbonitrile] — within 1.5-fold, 163 nM
- C[C@H]1C[C@@H](NCc2cnc(N3CCN(C)CC3)nc2)CN(c2ccc(C#N)c3ncccc23)C1 [Example 16, 5-[(3S,5R)-3-methyl-5-[[2-(4-methylpiperazin-1-yl)pyrimidin-5-yl]methylamino]-1-piperidyl]quinoline-8-carbonitrile] — 1.6-fold lower, 77 nM
- C[C@H]1C[C@@H](NCc2cnc(N3CCNCC3)nc2)CN(c2ccc(C#N)c3ncccc23)C1 [Example 17, 5-[(3S,5R)-3-methyl-5-[(2-piperazin-1-ylpyrimidin-5-yl)methylamino]-1-piperidyl]quinoline-8-carbonitrile] — 2.1-fold lower, 60 nM
- C[C@H]1C[C@@H](NCc2ccc(N3CCN(C)CC3)cn2)CN(c2ccc(C#N)c3ncsc23)C1 [Example 18, 7-[(3S,5R)-3-methyl-5-[[5-(4-methylpiperazin-1-yl)-2-pyridyl]methylamino]-1-piperidyl]-1,3-benzothiazole-4-carbonitrile] — within 1.5-fold, 116 nM
- C[C@H]1C[C@@H](NCc2ccc(N3CCNCC3)cc2)CN(c2ccc(C#N)n3nccc23)C1 [Example 21, 4-[(3S,5R)-3-methyl-5-[(4-piperazin-1-ylphenyl)methylamino]-1-piperidyl]pyrazolo[1,5-a]pyridine-7-carbonitrile] — within 1.5-fold, 94 nM
- C[C@H]1C[C@@H](NCc2ccc(N3CCNCC3)cc2)CN(c2ccc(Cl)c3ncccc23)C1 [Example 22, (3R,5S)-1-(8-chloro-5-quinolyl)-5-methyl-N-[(4-piperazin-1-ylphenyl)methyl]piperidin-3-amine] — within 1.5-fold, 183 nM
- C[C@H]1C[C@@H](N2Cc3cc(N4CCNCC4)cnc3C2)CN(c2ccc(C#N)c3ncccc23)C1 [Example 23, 5-[(3S,5R)-3-methyl-5-(3-piperazin-1-yl-5,7-dihydropyrrolo[3,4-b]pyridin-6-yl)-1-piperidyl]quinoline-8-carbonitrile] — within 1.5-fold, 92 nM
- C[C@H]1C[C@@H](NCc2ncc(N3CCNCC3)cn2)CN(c2ccc(C#N)c3ncccc23)C1 [Example 25, 5-[(3S,5R)-3-methyl-5-[(5-piperazin-1-ylpyrimidin-2-yl)methylamino]-1-piperidyl]quinoline-8-carbonitrile] — 2.1-fold lower, 61 nM
- CC(N[C@@H]1C[C@H](C)CN(c2ccc(C#N)c3ncccc23)C1)c1ccc(N2CCNCC2)cc1 (stereo partly drawn) [Example 26, 5-[(3S,5R)-3-methyl-5-[1-(4-piperazin-1-ylphenyl)ethylamino]-1-piperidyl]quinoline-8-carbonitrile] — 2.3-fold lower, 55 nM
- C[C@H]1C[C@@H](NCc2cnc(N3CCN[C@H](C)C3)nc2)CN(c2ccc(C#N)c3ncccc23)C1 [Example 28, 5-[(3S,5R)-3-methyl-5-[[2-[(3R)-3-methylpiperazin-1-yl]pyrimidin-5-yl]methylamino]-1-piperidyl]quinoline-8-carbonitrile] — 2.6-fold lower, 48 nM
